Measured values from ChEMBL document CHEMBL4052762, “Synthesis and biological evaluation of pyrrole-based chalcones as CYP1 enzyme inhibitors, for possible prevention of cancer and overcoming cisplatin resistance” (Bioorg Med Chem Lett, 2017).

Legend:
[1] = biological target: T1, Aryl hydrocarbon receptor (Homo sapiens, UniProt P35869); assay: Antagonist activity at human AhR expressed in Saccharomyces cerevisiae W303-1A (ATCC 208352) transformed with an episomal plasmid containing a minimal CYC1 promoter, with a concatemer of five XRE enhancer sequences, linked to eGFP reporter gene and co-expressing ARNT assessed as inhibition of B[a]P agonist induced XRE-driven eGFP expression by measuring eGFP units at 1 uM after 18 hrs by …
T1 sequence (P35869 whole entry): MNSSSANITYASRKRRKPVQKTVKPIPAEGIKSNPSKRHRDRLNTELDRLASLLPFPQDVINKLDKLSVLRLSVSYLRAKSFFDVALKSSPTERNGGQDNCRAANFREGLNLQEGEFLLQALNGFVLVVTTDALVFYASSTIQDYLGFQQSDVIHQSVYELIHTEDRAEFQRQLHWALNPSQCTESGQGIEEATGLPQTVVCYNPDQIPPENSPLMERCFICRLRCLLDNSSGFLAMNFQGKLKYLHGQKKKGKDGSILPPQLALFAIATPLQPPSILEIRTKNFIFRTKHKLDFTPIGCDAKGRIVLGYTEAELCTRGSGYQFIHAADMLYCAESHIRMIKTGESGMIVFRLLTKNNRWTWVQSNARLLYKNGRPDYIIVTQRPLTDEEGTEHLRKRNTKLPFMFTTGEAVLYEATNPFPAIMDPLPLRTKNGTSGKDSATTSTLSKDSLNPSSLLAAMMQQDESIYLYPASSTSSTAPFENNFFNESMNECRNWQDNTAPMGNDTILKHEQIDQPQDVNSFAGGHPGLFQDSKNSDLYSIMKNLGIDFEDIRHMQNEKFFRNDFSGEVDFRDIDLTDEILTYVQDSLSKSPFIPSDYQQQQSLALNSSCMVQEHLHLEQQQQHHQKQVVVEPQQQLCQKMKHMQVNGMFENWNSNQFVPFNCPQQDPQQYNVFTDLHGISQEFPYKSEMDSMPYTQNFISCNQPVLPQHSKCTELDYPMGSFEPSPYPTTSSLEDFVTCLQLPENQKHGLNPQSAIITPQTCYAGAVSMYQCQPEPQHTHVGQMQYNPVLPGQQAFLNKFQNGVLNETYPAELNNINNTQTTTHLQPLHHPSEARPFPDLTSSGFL

[2] = biological target: T2, Cytochrome P450 1A2 (Homo sapiens, UniProt P05177); assay: Inhibition of human CYP1A2 bound to yeast microsomal membrane using 3-cyano-7-ethoxycoumarin as substrate after 10 mins by fluorescence assay
T2 sequence (P05177 whole entry): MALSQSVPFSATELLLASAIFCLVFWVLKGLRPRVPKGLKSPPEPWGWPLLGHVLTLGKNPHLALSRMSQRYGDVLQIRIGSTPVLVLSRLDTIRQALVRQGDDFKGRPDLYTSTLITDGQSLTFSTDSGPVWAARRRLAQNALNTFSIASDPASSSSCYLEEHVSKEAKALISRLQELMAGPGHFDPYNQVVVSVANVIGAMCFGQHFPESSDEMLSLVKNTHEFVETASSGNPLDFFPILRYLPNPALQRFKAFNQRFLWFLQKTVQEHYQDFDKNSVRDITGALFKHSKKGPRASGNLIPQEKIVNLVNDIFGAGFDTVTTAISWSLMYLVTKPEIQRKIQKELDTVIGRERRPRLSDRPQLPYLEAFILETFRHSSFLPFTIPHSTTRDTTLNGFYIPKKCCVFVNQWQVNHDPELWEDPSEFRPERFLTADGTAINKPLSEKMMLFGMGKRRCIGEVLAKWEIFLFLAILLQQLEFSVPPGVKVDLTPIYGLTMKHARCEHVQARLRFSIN

[3] = biological target: T3, Cytochrome P450 2D6 (Homo sapiens, UniProt P10635); assay: Inhibition of human CYP2D6 expressed in HEK293 cells using fluorogenic 7-ethoxy-methyloxy-3-cyanocoumarin as substrate preincubated for 30 mins followed by substrate addition measured for 60 mins by fluorescence assay; type: ADME, cell-based
T3 sequence (P10635 whole entry): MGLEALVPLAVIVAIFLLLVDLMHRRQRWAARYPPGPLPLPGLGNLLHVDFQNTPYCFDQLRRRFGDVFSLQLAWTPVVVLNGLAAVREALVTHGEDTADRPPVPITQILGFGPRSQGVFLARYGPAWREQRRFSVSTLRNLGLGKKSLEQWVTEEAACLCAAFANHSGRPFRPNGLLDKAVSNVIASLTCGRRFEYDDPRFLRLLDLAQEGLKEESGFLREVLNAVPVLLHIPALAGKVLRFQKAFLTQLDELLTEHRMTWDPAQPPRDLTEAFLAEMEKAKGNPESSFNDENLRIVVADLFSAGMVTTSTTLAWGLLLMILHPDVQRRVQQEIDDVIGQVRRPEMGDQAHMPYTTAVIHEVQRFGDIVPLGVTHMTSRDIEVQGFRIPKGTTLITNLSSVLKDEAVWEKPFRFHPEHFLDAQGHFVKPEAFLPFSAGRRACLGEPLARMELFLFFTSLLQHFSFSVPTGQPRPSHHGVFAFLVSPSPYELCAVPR

[4] = biological target: T4, Cytochrome P450 1B1 (Homo sapiens, UniProt Q16678); assay: Inhibition of human CYP1B1 bound to yeast microsomal membrane using 7-ethoxyresorufin as substrate after 10 mins by fluorescence assay
T4 sequence (Q16678 whole entry): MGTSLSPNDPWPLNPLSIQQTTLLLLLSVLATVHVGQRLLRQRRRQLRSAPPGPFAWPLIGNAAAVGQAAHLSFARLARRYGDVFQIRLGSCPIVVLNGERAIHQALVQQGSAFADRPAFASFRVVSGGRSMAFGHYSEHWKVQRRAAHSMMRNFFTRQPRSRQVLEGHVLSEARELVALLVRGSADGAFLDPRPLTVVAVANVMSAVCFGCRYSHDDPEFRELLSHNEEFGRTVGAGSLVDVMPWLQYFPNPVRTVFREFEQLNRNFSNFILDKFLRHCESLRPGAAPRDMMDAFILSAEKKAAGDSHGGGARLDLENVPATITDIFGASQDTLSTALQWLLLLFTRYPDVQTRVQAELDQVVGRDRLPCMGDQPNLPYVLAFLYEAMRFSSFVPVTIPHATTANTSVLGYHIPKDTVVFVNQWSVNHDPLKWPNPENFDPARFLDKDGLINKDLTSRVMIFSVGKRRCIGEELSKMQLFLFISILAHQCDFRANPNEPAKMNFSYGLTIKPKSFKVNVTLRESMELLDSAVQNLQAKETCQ

[5] = biological target: T5, Cytochrome P450 3A4 (Homo sapiens, UniProt P08684); assay: Inhibition of human CYP3A4 expressed in HEK293 cells using fluorogenic dibenzylfluorescein as substrate preincubated for 30 mins followed by substrate addition measured for 60 mins by fluorescence assay; type: ADME, cell-based
T5 sequence (P08684 whole entry): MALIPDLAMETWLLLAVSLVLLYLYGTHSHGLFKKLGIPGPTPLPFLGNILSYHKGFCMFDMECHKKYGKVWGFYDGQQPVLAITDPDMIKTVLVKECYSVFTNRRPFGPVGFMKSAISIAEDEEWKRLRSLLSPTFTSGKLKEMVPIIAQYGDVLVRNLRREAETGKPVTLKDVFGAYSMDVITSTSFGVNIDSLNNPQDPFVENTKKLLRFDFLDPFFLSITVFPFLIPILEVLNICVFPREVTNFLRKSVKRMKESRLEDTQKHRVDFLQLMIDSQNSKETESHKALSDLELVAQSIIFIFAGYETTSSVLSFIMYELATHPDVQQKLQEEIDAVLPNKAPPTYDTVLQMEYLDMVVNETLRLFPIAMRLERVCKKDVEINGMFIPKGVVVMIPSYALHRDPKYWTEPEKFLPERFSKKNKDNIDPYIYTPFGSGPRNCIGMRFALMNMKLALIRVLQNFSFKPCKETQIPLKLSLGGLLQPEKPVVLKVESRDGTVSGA

[6] = biological target: T6, Cytochrome P450 2C19 (Homo sapiens, UniProt P33261); assay: Inhibition of human CYP2C19 expressed in HEK293 cells using fluorogenic 3-cyano-7-ethoxycoumarin as substrate preincubated for 30 mins followed by substrate addition measured for 60 mins by fluorescence assay; type: ADME, cell-based
T6 sequence (P33261 whole entry): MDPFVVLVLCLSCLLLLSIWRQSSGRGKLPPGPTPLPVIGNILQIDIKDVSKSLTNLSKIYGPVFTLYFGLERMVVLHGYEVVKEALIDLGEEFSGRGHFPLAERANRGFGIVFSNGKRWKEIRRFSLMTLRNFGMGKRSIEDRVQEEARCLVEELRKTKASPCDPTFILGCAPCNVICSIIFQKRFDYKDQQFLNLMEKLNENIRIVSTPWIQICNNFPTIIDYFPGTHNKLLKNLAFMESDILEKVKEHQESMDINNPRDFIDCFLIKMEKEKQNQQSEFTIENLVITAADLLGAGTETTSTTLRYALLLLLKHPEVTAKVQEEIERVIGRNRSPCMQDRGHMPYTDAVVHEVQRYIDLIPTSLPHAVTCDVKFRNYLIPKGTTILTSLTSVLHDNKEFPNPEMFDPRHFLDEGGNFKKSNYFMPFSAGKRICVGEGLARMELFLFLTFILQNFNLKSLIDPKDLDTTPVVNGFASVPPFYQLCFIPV

[7] = biological target: T6, Cytochrome P450 2C19; assay: Inhibition of human CYP2C19 bound to yeast microsomal membrane using 3-cyano-7-ethoxycoumarin as substrate after 10 mins by fluorescence assay; type: ADME
[8] = biological target: T3, Cytochrome P450 2D6; assay: Inhibition of human CYP2D6 bound to yeast microsomal membrane using 7-ethoxy-methyloxy-3-cyanocoumarin as substrate after 10 mins by fluorescence assay; type: ADME
[9] = biological target: T5, Cytochrome P450 3A4; assay: Inhibition of human CYP3A4 bound to yeast microsomal membrane using dibenzylfluorescein as substrate after 10 mins by fluorescence assay; type: ADME
[10] = Selectivity ratio of IC50 for human CYP2C9 expressed in HEK293 cells to IC50 for human CYP1B1 expressed in HEK293 cells
[11] = Selectivity ratio of IC50 for human CYP2D6 expressed in HEK293 cells to IC50 for human CYP1A1 expressed in HEK293 cells
[12] = species: Homo sapiens; assay: Selectivity ratio of IC50 for human CYP2D6 bound to yeast microsomal membrane to IC50 for human CYP1A2 bound to yeast microsomal membrane
[13] = Selectivity ratio of IC50 for human CYP2D6 expressed in HEK293 cells to IC50 for human CYP1B1 expressed in HEK293 cells
[14] = species: Homo sapiens; assay: Selectivity ratio of IC50 for human CYP2C19 bound to yeast microsomal membrane to IC50 for human CYP1A2 bound to yeast microsomal membrane
[15] = Selectivity ratio of IC50 for human CYP2C9 expressed in HEK293 cells to IC50 for human CYP1A2 expressed in HEK293 cells
[16] = Selectivity ratio of IC50 for human CYP3A4 expressed in HEK293 cells to IC50 for human CYP1A2 expressed in HEK293 cells

## O=C(/C=C/c1ccc(OC(F)(F)F)cc1)c1ccc[nH]1
[1]
  Activity: 955 U
[2]
  IC50: > 20000 nM
[3]
  IC50: > 20 µM
[4]
  IC50: > 20000 nM
[5]
  IC50: > 20 µM
[6]
  IC50: > 20 µM
[7]
  IC50: > 20 µM
[8]
  IC50: 16 µM
[9]
  IC50: > 20 µM

## COc1ccccc1/C=C/C(=O)c1ccc[nH]1
[10]
  Ratio IC50: >20
[1]
  Activity: 600 U
[11]
  Ratio IC50: >20
[2]
  IC50: 1100 nM
[12]
  Ratio IC50: > 20
[13]
  Ratio IC50: >20
[3]
  IC50: 20 µM
[4]
  IC50: 900 nM
[5]
  IC50: > 10 µM
[6]
  IC50: > 10 µM
[7]
  IC50: > 20 µM
[8]
  IC50: 20 µM
[14]
  Ratio IC50: > 20
[9]
  IC50: > 20 µM
[15]
  Ratio IC50: >20
[16]
  Ratio IC50: >20

## O=C(/C=C/c1ccccc1Cl)c1ccc[nH]1
[10]
  Ratio IC50: >20
[1]
  Activity: 920 U
[11]
  Ratio IC50: >20
[2]
  IC50: 700 nM
[12]
  Ratio IC50: > 20
[13]
  Ratio IC50: >20
[3]
  IC50: > 10 µM
[4]
  IC50: 200 nM
[5]
  IC50: > 10 µM
[6]
  IC50: > 10 µM
[7]
  IC50: > 20 µM
[8]
  IC50: 12 µM
[14]
  Ratio IC50: > 20
[9]
  IC50: > 20 µM
[15]
  Ratio IC50: >20
[16]
  Ratio IC50: >20
